In EP0500835B1, “A NOVEL QUINOLONE CARBOXYLIC ACID DERIVATIVE” (DAEWOONG PHARMACEUTICAL CO., LTD., priority 1990, dated 1992):
Values after ≈ are worked out from the molar mass of the structure shown.

Assays:
S. pyogenes A 308 = test: In vitro antibacterial activity, MIC by agar dilution method; format: cell-based; conditions: Streptococcus pyogenes, A308; S. pyogenes A 308; agar dilution method; read-out: In vitro Antibacterial Activity, MIC
Description: (§1) The typical examples of the present compounds were tested for antimicrobial activity in vitro against twenty strains of Gram-positive and Gram-negative microorganisms.
(§2) The numerals in the table 1 show minimum inhibitory concentrations(MIC in µg/ml). The minimum inhibitory concentrations were determined according to the agar dilution method recommended by Japan Society of Chemotherapy[Chemotherapy., 29, 76 (1981)].

S. aureus SG 511 = test: as above; format: cell-based; conditions: Staphylococcus aureus, SG511; S. aureus SG 511; agar dilution method; read-out: In vitro Antibacterial Activity, MIC
Description: as §1, §2

P. aeruginosa 1771M = test: as above; format: cell-based; conditions: Pseudomonas aeruginosa; P. aeruginosa 1771M; agar dilution method; read-out: In vitro Antibacterial Activity, MIC
Description: as §1, §2

E. coli TEM = test: as above; format: cell-based; conditions: Escherichia coli; E. coli TEM; agar dilution method; read-out: In vitro Antibacterial Activity, MIC
Description: as §1, §2

P. aeruginosa 1771 = test: as above; format: cell-based; conditions: Pseudomonas aeruginosa; P. aeruginosa 1771; agar dilution method; read-out: In vitro Antibacterial Activity, MIC
Description: as §1, §2

S. aureus 285 = test: as above; format: cell-based; conditions: Staphylococcus aureus; S. aureus 285; agar dilution method; read-out: In vitro Antibacterial Activity, MIC
Description: as §1, §2

S. aureus 503 = test: as above; format: cell-based; conditions: Staphylococcus aureus; S. aureus 503; agar dilution method; read-out: In vitro Antibacterial Activity, MIC
Description: as §1, §2

E. coli DC 0 = test: as above; format: cell-based; conditions: Escherichia coli, DC0, read-out: In vitro Antibacterial Activity, MIC
Description: as §1, §2

K. oxytoca 1082E = test: as above; format: cell-based; conditions: Klebsiella oxytoca; K. oxytoca 1082E; agar dilution method; read-out: In vitro Antibacterial Activity, MIC
Description: as §1, §2

S. faecium MD 86 = test: as above; format: cell-based; conditions: Enterococcus faecium, MD86; S. faecium MD 86; agar dilution method; read-out: In vitro Antibacterial Activity, MIC
Description: as §1, §2

E. coli DC 2 = test: as above; format: cell-based; conditions: Escherichia coli, DC2, read-out: In vitro Antibacterial Activity, MIC
Description: as §1, §2

S. pyogenes A 77 = test: as above; format: cell-based; conditions: Streptococcus pyogenes, A77; S. pyogenes A 77; agar dilution method; read-out: In vitro Antibacterial Activity, MIC
Description: as §1, §2

P. aeruginosa 1592E = test: as above; format: cell-based; conditions: Pseudomonas aeruginosa; P. aeruginosa 1592E; agar dilution method; read-out: In vitro Antibacterial Activity, MIC
Description: as §1, §2

P. aeruginosa 9027 = test: as above; format: cell-based; conditions: Pseudomonas aeruginosa; P. aeruginosa 9027; agar dilution method; read-out: In vitro Antibacterial Activity, MIC
Description: as §1, §2

E. coli 1507E = test: as above; format: cell-based; conditions: Escherichia coli; E. coli 1507E; agar dilution method; read-out: In vitro Antibacterial Activity, MIC
Description: as §1, §2

Oral LD50 in male mice = conditions: mouse, in vivo, orally administered
Description: (§3) The compound of example 2 was orally administered to determine the LD50 for a group of male mice. […] The antibacterial activity for MRSA(Methicillin Resistant Staphyloccocus Aureus) was tested by the compound of example 2.

E. coli O 55 = test: In vitro antibacterial activity, MIC by agar dilution method; format: cell-based; conditions: Escherichia coli, O55; E. coli O 55; agar dilution method; read-out: In vitro Antibacterial Activity, MIC
Description: as §1
(§4) The minimum inhibitory concentrations were determined according to the agar dilution method recommended by Japan Society of Chemotherapy[Chemotherapy., 29, 76 (1981)].

E. cloacae P99 = test: as above; format: cell-based; conditions: Enterobacter cloacae; E. cloacae P99; agar dilution method; read-out: In vitro Antibacterial Activity, MIC
Description: as §1, §4

K. aerogenes 1522E = test: as above; format: cell-based; conditions: Klebsiella aerogenes; K. aerogenes 1522E; agar dilution method; read-out: In vitro Antibacterial Activity, MIC
Description: as §1, §4

S. typhimurium = test: as above; format: cell-based; conditions: Salmonella enterica; S. typhimurium; agar dilution method; read-out: In vitro Antibacterial Activity, MIC
Description: as §1, §4

E. cloacae 1321E = test: as above; format: cell-based; conditions: Enterobacter cloacae; E. cloacae 1321E; agar dilution method; read-out: In vitro Antibacterial Activity, MIC
Description: as §1, §4

[1] = test system: Staphylococcus aureus 714E; test: Antibacterial activity for MRSA; format: cell-based; conditions: Staphylococcus aureus 714E (MRSA)
Description: as §3

[2] = test system: Staphylococcus aureus 88 E; test: Antibacterial activity for MRSA; format: cell-based; conditions: Staphylococcus aureus 88 E (MRSA)
Description: as §3

[3] = test system: Staphylococcus aureus 697E; test: Antibacterial activity for MRSA; format: cell-based; conditions: Staphylococcus aureus 697E (MRSA)
Description: as §3

[4] = test system: Staphylococcus aureus 695E; test: Antibacterial activity for MRSA; format: cell-based; conditions: Staphylococcus aureus 695E (MRSA)
Description: as §3

[5] = test system: Staphylococcus aureus 707E; test: Antibacterial activity for MRSA; format: cell-based; conditions: Staphylococcus aureus 707E (MRSA)
Description: as §3

[6] = test system: Staphylococcus aureus 706E; test: Antibacterial activity for MRSA; format: cell-based; conditions: Staphylococcus aureus 706E (MRSA)
Description: as §3

[7] = test system: Staphylococcus aureus 121E; test: Antibacterial activity for MRSA; format: cell-based; conditions: Staphylococcus aureus 121E (MRSA)
Description: as §3

[8] = test system: Staphylococcus aureus 694E; test: Antibacterial activity for MRSA; format: cell-based; conditions: Staphylococcus aureus 694E (MRSA)
Description: as §3

[9] = test system: Staphylococcus aureus 693E; test: Antibacterial activity for MRSA; format: cell-based; conditions: Staphylococcus aureus 693E (MRSA)
Description: as §3

[10] = test system: Staphylococcus aureus 690E; test: Antibacterial activity for MRSA; format: cell-based; conditions: Staphylococcus aureus 690E (MRSA)
Description: as §3

[11] = test system: Staphylococcus aureus 208E; test: Antibacterial activity for MRSA; format: cell-based; conditions: Staphylococcus aureus 208E (MRSA)
Description: as §3

[12] = test system: Staphylococcus aureus 752E; test: Antibacterial activity for MRSA; format: cell-based; conditions: Staphylococcus aureus 752E (MRSA)
Description: as §3

[13] = test system: Staphylococcus aureus 708E; test: Antibacterial activity for MRSA; format: cell-based; conditions: Staphylococcus aureus 708E (MRSA)
Description: as §3

[14] = test system: Staphylococcus aureus 711E; test: Antibacterial activity for MRSA; format: cell-based; conditions: Staphylococcus aureus 711E (MRSA)
Description: as §3

[15] = test system: Saphylococcus aureus 692E; test: Antibacterial activity for MRSA; format: cell-based; conditions: Saphylococcus aureus 692E (MRSA)
Description: as §3

[16] = test system: Staphylococcus aureus 703E; test: Antibacterial activity for MRSA; format: cell-based; conditions: Staphylococcus aureus 703E (MRSA)
Description: as §3

[17] = test system: Staphylococcus aureus 256E; test: Antibacterial activity for MRSA; format: cell-based; conditions: Staphylococcus aureus 256E (MRSA)
Description: as §3

[18] = test system: Staphylococcus aureus 705E; test: Antibacterial activity for MRSA; format: cell-based; conditions: Staphylococcus aureus 705E (MRSA)
Description: as §3

[19] = test system: Staphylococcus aureus 701E; test: Antibacterial activity for MRSA; format: cell-based; conditions: Staphylococcus aureus 701E (MRSA)
Description: as §3

CSCC1CCN(c2c(F)cc3c(=O)c(C(=O)O)cn(C4CC4)c3c2F)C1 (stereo not shown) [Example 2, 1-cyclopropyl-6,8-difluoro-7-(3-methylthiomethylpyrrolidinyl)-1,4-dihydro-4-oxo-3-quinolinecarboxylic acid]
MIC (S. pyogenes A 308): 0.195 µg/mL (≈ 0.494 µM) | MIC (S. aureus SG 511): 0.002 µg/mL (≈ 0.00507 µM) | MIC (P. aeruginosa 1771M): 0.098 µg/mL (≈ 0.248 µM) | MIC (E. coli TEM): 0.391 µg/mL (≈ 0.991 µM) | MIC (P. aeruginosa 1771): 0.391 µg/mL (≈ 0.991 µM) | MIC (S. aureus 285): 0.002 µg/mL (≈ 0.00507 µM) | MIC (S. aureus 503): 0.002 µg/mL (≈ 0.00507 µM) | MIC (E. coli DC 0): 0.781 µg/mL (≈ 1.98 µM) | MIC (K. oxytoca 1082E): 0.007 µg/mL (≈ 0.0177 µM) | MIC (S. faecium MD 86): 0.195 µg/mL (≈ 0.494 µM) | MIC (E. coli DC 2): 0.781 µg/mL (≈ 1.98 µM) | MIC (S. pyogenes A 77): 0.098 µg/mL (≈ 0.248 µM) | MIC (P. aeruginosa 1592E): 0.781 µg/mL (≈ 1.98 µM) | MIC (P. aeruginosa 9027): 0.781 µg/mL (≈ 1.98 µM) | MIC (E. coli 1507E): 0.391 µg/mL (≈ 0.991 µM) | LD50 (Oral LD50 in male mice): > 3000 mg/kg | MIC (E. coli O 55): 0.013 µg/mL (≈ 0.033 µM) | MIC (E. cloacae P99): 0.098 µg/mL (≈ 0.248 µM) | MIC (K. aerogenes 1522E): 0.098 µg/mL (≈ 0.248 µM) | MIC (S. typhimurium): 0.049 µg/mL (≈ 0.124 µM) | MIC (E. cloacae 1321E): 0.025 µg/mL (≈ 0.0634 µM) | Antibacterial Activity for MRSA [1]: 0.007 µg/mL | Antibacterial Activity for MRSA [2]: 0.004 µg/mL | Antibacterial Activity for MRSA [3]: 0.013 µg/mL | Antibacterial Activity for MRSA [4]: 0.013 µg/mL | Antibacterial Activity for MRSA [5]: 0.007 µg/mL | Antibacterial Activity for MRSA [6]: 0.013 µg/mL | Antibacterial Activity for MRSA [7]: 0.013 µg/mL | Antibacterial Activity for MRSA [8]: 0.013 µg/mL | Antibacterial Activity for MRSA [9]: 0.007 µg/mL | Antibacterial Activity for MRSA [10]: 0.004 µg/mL | Antibacterial Activity for MRSA [11]: 0.025 µg/mL | Antibacterial Activity for MRSA [12]: 0.013 µg/mL | Antibacterial Activity for MRSA [13]: 0.007 µg/mL | Antibacterial Activity for MRSA [14]: 0.013 µg/mL | Antibacterial Activity for MRSA [15]: 0.004 µg/mL | Antibacterial Activity for MRSA [16]: 0.007 µg/mL | Antibacterial Activity for MRSA [17]: 0.013 µg/mL | Antibacterial Activity for MRSA [18]: 0.013 µg/mL | Antibacterial Activity for MRSA [19]: 0.013 µg/mL
